Read-outs that look alike come from different tables or passages of the source. Where no end group is shown, it is not given here.
What was measured:
[1] = tested on: human ovarian cancer stem cells 1031CSC
Method: (§1) Human monocyte-derived DCs were generated using previously described methods. […] The DCs were washed and plated in 6-well plates at a concentration of 5×10^6 cells/well IFN-γ (1000 unit/ml), and then monophosphoryl lipid A (MPLA, 20-50 μg/ml) (Cat# L6895, Sigma, St. Louis) was added into the wells to mature the DC for 24 hr or 48 hrs.
(§2) In order to evaluate antigen-specific immune responses, CD8 T cells were isolated from fresh or frozen apheresis by positive selection using Dynabeads® CD8 Positive Isolation Kit (Life Technologies, Grand Island, N.Y.) and co-cultured with autologous mDC for four weeks. DCs were added weekly. Briefly, mDCs were pulsed with synthetic peptides (10 μg/μl) for 6-8 hours at 37° C., and then treated with 20 ug/ml Mitomycin C (Sigma-Aldrich, St. Louis, Mo.) for 25 min at 37° C. and 5% CO2. The mDCs (5×10^4 cells/well) were co-cultured with autologous CD8^+ T cells (5×10^5 cells/well) in a 96-well plate at 37° C., 5% CO2 in a final volume of 200 μl CTL medium (IMDM with 0.24 mM Asparagine, 0.55 mM L-Arginine, 1.5 mM L-Glutamine and 10% heat inactivated human AB serum). Half of the medium was replaced every other day by fresh culture medium containing 40 IU/ml IL-2 and 20 ng/ml IL-7, the 3rd and 4th week 40 U/ml of IL-2 was replaced with 25 ng/ml IL-15. In the culture medium, peptides could also be added to the culture well at a final concentration of 1-2 μg/ml.
(§3) DDAO-SE labeled target cells were mixed with effector cells at a 1:10 ratio in round-bottom 96 well plate and incubated overnight at 37° C., 5% CO2. The cells were washed, fixed, and permeabilized with Fix/Perm solution (BD Biosciences) and then stained for 30 minutes at 4° C. with 10 μl PE-labeled anti-cleaved caspase-3 monoclonal antibody, followed by Cyan flow cytometric analysis (Beckman Coulter, Inc).

[2] = tested on: human ovarian cancer stem cells 882CSC
Method: as §1, §2, §3

[3] = target: HLA-A*0201 molecules on T2 cells (Homo sapiens, UniProt P04439, D140Y/D185E/D98H/E176V/E277Q/G131W/G231S/I119V/I121R/I166T/I218V/L300P/L318F/N151K/N90K/P208A/P217A/Q86G/Q94H/R138H/R169H/T345S); assay: T2 cell binding assay of HLA-A2 peptides; conditions: peptide 75 μg/ml; for binding with T2 cells (affinity in words): conclusion of Example 11; for affinity to HLA-A*0201 molecules (up-regulation of HLA-A*0201 molecules): FIG. 5A
[4] = Immunogenicity in vitro of A2 peptide epitopes (Table 1); type: cell-based; conditions: Table 1, no method given
[5] = tested on: human ovarian cancer stem cells 1031CSC; assay: Killing assay of peptide-specific CTLs (DDAO-SE and cleaved caspase-3 method); conditions: target:effector 1:10, overnight, cleaved caspase-3, FIG. 6B
Method: as §1, §2, §3

[6] = tested on: human ovarian cancer stem cells 882CSC; assay: as above; conditions: target:effector 1:10, overnight, cleaved caspase-3, FIG. 6A
Method: as §1, §2, §3

Question: With CSCC[C@H](NC(=O)[C@@H](N)C(C)C)C(=O)N[C@@H](C)C(=O)NCC(=O)N[C@H](C(=O)NCC(=O)N[C@@H](CO)C(=O)N1CCC[C@H]1C(=O)N[C@@H](Cc1ccc(O)cc1)C(=O)N[C@H](C(=O)O)C(C)C)C(C)C [HER2p773] as the molecule, how does the “cytotoxicity of peptide-specific CTLs against 1031CSC” value [1] read?
Answer: efficiently recognize and lyse

Question: And the “cytotoxicity of peptide-specific CTLs against 882CSC” value [2]?
Answer: efficiently recognize and lyse

Question: With “EIWTHSYKV (listed as Homo sapiens) [FOLR1p191]” as the molecule, how does the “binding with T2 cells (affinity in words)” value (“binding with T2 cells” for short) [3] read?
Answer: lower binding capacity

Question: And the “affinity to HLA-A*0201 molecules (up-regulation of HLA-A*0201 molecules)” value ([3]; overnight)?
Answer: low affinity

Question: What about the “MFI index (relative binding affinity fluorescence index)” value ([3]; overnight, FIG. 5B) of the same molecule?
Answer: less than 1

Question: And the Immunogenicity in vitro [4]?
Answer: Yes

Question: With “KVLEYVIKV (listed as Homo sapiens) [MAGEA1p278]” as the molecule, how does the “binding with T2 cells” value [3] read?
Answer: high affinity binding

Question: What about the Immunogenicity in vitro [4] of the same molecule?
Answer: Yes

Question: For SLLFLLFSL (listed as Homo sapiens), which Immunogenicity in vitro [4] is on record?
Answer: Yes

Question: For SLLMWITQC [NY-ESO-1p157], which Immunogenicity in vitro [4] is on record?
Answer: Yes

Question: For TLADFDPRV [EphA2p883], which “cytotoxicity of peptide-specific CTLs against 1031CSC” value [5] is on record?
Answer: efficiently recognize and lyse

Question: What about the “cytotoxicity of peptide-specific CTLs against 882CSC” value [6] of the same molecule?
Answer: efficiently recognize and lyse

Question: For “VLPLTVAEV (listed as Homo sapiens) [mesothelinp531]”, which “binding with T2 cells” value [3] is on record?
Answer: high affinity binding

Question: And the “affinity to HLA-A*0201 molecules (up-regulation of HLA-A*0201 molecules)” value ([3]; overnight)?
Answer: high affinities

Question: What about the Immunogenicity in vitro [4] of the same molecule?
Answer: Yes

Question: What does the source list for WLPFGFILI [IL-13Rα2p345]?
Answer: cytotoxicity of peptide-specific CTLs against 1031CSC [5]: efficiently recognize and lyse; cytotoxicity of peptide-specific CTLs against 882CSC [6]: efficiently recognize and lyse

Source: patent publication US20140234351A1, “CANCER VACCINES AND VACCINATION METHODS” (ImmunoCellular Therapeutics, Ltd., priority 2013, published 2014)
